Our source for the IC50 and inhibition values is ChEMBL document CHEMBL1130626, “MEK inhibitors: the chemistry and biological activity of U0126, its analogs, and cyclization products” (Bioorg Med Chem Lett, 1998).

Molecules are shown by their SMILES.

For assay [1], the target named is T1, Dual specificity mitogen-activated protein kinase kinase 1 (Homo sapiens, UniProt Q02750).
Assay [2] addresses Dual specificity mitogen-activated protein kinase kinase; MEK1/2 (Homo sapiens, UniProt P36507+Q02750). The experiment in a line: Ability to antagonise AP-1 transcriptional activity. It is filed as functional.
The target of assay [3] is T1, Dual specificity mitogen-activated protein kinase kinase 1. Kind of assay: Non-competitive inhibition of the dual specificity kinase MEK at the concentration 10 uM.
For assay [4] the target is unchanged. The experiment in a line: Inhibition of the dual specificity kinase MEK-1 (Inactive).

T1 sequence (Q02750 whole entry): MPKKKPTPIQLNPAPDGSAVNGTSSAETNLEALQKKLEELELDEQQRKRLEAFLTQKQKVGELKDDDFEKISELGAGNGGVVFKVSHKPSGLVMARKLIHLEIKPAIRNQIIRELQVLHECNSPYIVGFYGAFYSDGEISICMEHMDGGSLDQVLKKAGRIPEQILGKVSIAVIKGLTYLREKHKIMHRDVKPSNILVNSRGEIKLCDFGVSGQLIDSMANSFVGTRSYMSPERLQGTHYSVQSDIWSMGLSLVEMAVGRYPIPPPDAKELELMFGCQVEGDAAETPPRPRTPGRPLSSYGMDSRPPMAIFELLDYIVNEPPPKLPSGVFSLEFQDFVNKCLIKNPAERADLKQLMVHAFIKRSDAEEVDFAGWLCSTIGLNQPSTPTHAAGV

For the molecule `N#CC(=C1/Nc2ccccc2S1)/C(C#N)=C1\Nc2ccccc2S1`, the IC50 was found to be 0.7 µM in assay [1] and 42.5 µM in assay [2]. As for `N#CC(=C(/N)Sc1c(Cl)cccc1Cl)/C(C#N)=C(\N)Sc1c(Cl)cccc1Cl`, the IC50 in assay [1] came to 2.8 µM; in assay [2] it was 6.5 µM. Taken in the same sequence, the figures for `N#CC(=C(/N)Sc1ccccc1)/C(C#N)=C(\N)Sc1ccccc1` were 0.9 µM and 12.2 µM. On the same counts, the results for `Cc1ccccc1S/C(N)=C(C#N)/C(C#N)=C(\N)Sc1ccccc1C` are 2 µM and 13.3 µM.

Molecule `N#CC(=C(/N)Sc1ccc2ccccc2c1)/C(C#N)=C(\N)Sc1ccc2ccccc2c1` came in with an inhibition in assay [3] of 54%. In assay [3], `N#CC(=C(/N)Sc1cccc(-c2ccccc2)c1)/C(C#N)=C(\N)Sc1cccc(-c2ccccc2)c1` displayed an inhibition of 54.6%. For `CNc1ccccc1S/C(N)=C(C#N)/C(C#N)=C(\N)Sc1ccccc1NC`, in assay [3], the inhibition came to 19.1%. On the same count and under the same terms, the value for `CCc1ccccc1S/C(N)=C(C#N)/C(C#N)=C(\N)Sc1ccccc1CC` was 18%. `N#CC(=C(/N)Sc1ccccc1N)/C(C#N)=C1\Nc2ccccc2S1`: the IC50 was determined as 3.2 µM in assay [1] and 18.7 µM in assay [2]. Turning to `COc1ccc(S/C(N)=C(C#N)/C(C#N)=C(\N)Sc2ccc(OC)c(OC)c2)cc1OC`, the inhibition in assay [3] worked out at 0%. Still for that read-out and setting: the value for `N#CC(=C(/N)Sc1ccccc1CO)/C(C#N)=C(\N)Sc1ccccc1CO` was 51%. For the molecule `N#CC(=C(/N)Sc1cccc(C(F)(F)F)c1)/C(C#N)=C(\N)Sc1cccc(C(F)(F)F)c1`, the inhibition in assay [3] worked out at 32%. In assay [1], `N#CC(=C(/N)Sc1ccc(O)cc1)/C(C#N)=C(\N)Sc1ccc(O)cc1` registered an IC50 of 0.4 µM. That is a sub-micromolar value. Consider `N#CC(=C(/N)SCCO)/C(C#N)=C(\N)SCCO`, for which, in assay [3], the inhibition came to 0%. Still for that read-out and setting: the figure for `N#CC(=C(/N)Sc1cc(I)ccc1N)/C(C#N)=C(\N)Sc1cc(I)ccc1N` is 34.8%. Consider `CN1/C(=C(C#N)\C(C#N)=C2\Sc3ccccc3N2C)Sc2ccccc21`, for which, in assay [4], the IC50 result is recorded as “Not Active”. For the molecule `N#CC(=C(/N)Sc1cccs1)/C(C#N)=C(\N)Sc1cccs1`, the IC50 came out at 0.3 µM in assay [1] and 1.2 µM in assay [2].

As to `N#CC(=C(/N)Sc1ccccc1Br)/C(C#N)=C(\N)Sc1ccccc1Br`, the IC50 in assay [1] was determined as 1.1 µM; in assay [2], 7.9 µM. For the molecule `N#CC(=C(/N)Sc1ccccc1O)/C(C#N)=C(\N)Sc1ccccc1O`, the IC50 in assay [1] amounted to 0.3 µM; in assay [2], 0.4 µM. On the same counts, the results for `N#Cc1c(N)[nH]c(Sc2ccc3ccccc3c2)c1C#N` are 1.4 µM and 25.1 µM.

In the case of `N#CC(=C(/N)Sc1ccccc1-c1ccccc1)/C(C#N)=C(\N)Sc1ccccc1-c1ccccc1`, the inhibition in assay [3] was determined as 8.7%. `N#CC(=C(/N)Sc1cccc(Cl)c1)/C(C#N)=C(\N)Sc1cccc(Cl)c1`: the IC50 in assay [1] is 1.9 µM; in assay [2], 18.4 µM.

As for `N#CC(=C(/N)Sc1ccccc1F)/C(C#N)=C(\N)Sc1ccccc1F`, the IC50 was determined as 0.9 µM in assay [1] and 7.6 µM in assay [2]. With `N#CC(=C(/N)Sc1ccccc1Cl)/C(C#N)=C(\N)Sc1ccccc1Cl`, the results for the IC50 in assay [1] and in assay [2] were 0.9 µM and 6.6 µM, respectively. In the case of `N#CC(=C(/N)Sc1c(F)c(F)c(F)c(F)c1F)/C(C#N)=C(\N)Sc1c(F)c(F)c(F)c(F)c1F`, the inhibition in assay [3] turned out to be 17%. On the same count and under the same terms, the value for `CC(=O)Nc1ccc(S/C(N)=C(C#N)/C(C#N)=C(\N)Sc2ccc(NC(C)=O)cc2)cc1` was 0%. Regarding `N#CC(=C(/N)Sc1ccc2ccccc2c1N)/C(C#N)=C(\N)Sc1ccc2ccccc2c1N`, in assay [1], 2.1 µM corresponded to half-maximal inhibition (IC50). In the case of `CS/C(N)=C(C#N)/C(C#N)=C(\N)SC`, in assay [3], the inhibition is 24%. Consider `N#Cc1c(Sc2ccc3ccccc3c2)[nH]c(Sc2ccc3ccccc3c2)c1C#N`, for which the IC50 amounted to 2.1 µM in assay [1] and 28.9 µM in assay [2]. `CC(=O)Nc1ccccc1Sc1c(C#N)c(C#N)c2sc3ccccc3n12`: the IC50 result in assay [4] was “Not Active”. With `N#CC(=C(/N)Sc1cccc2ccccc12)/C(C#N)=C(\N)Sc1cccc2ccccc12`, the inhibition in assay [3] worked out at 26%. As for `N#CC(=C(/N)Sc1ccc(Cl)cc1)/C(C#N)=C(\N)Sc1ccc(Cl)cc1`, the IC50 in assay [1] is 2.1 µM; in assay [2] it was 21.7 µM. In the case of `COc1ccc(OC)c(S/C(N)=C(C#N)/C(C#N)=C(\N)Sc2cc(OC)ccc2OC)c1`, the inhibition in assay [3] came out at 18%. With `COc1ccccc1S/C(N)=C(C#N)/C(C#N)=C(\N)Sc1ccccc1OC`, the IC50 in assay [1] came to 4.5 µM; in assay [2], 16.5 µM. `N#CC(=C(/N)Sc1ccccc1[N+](=O)[O-])/C(C#N)=C(\N)Sc1ccccc1[N+](=O)[O-]` came in with an inhibition in assay [3] of 41%.

On to `N#CC(=C(/N)Sc1ccc(C(F)(F)F)cc1)/C(C#N)=C(\N)Sc1ccc(C(F)(F)F)cc1`, for which, in assay [3], the inhibition was determined as 33%. In the case of `N#Cc1c(NS(=O)(=O)c2ccccc2)[nH]c(Sc2ccc3ccccc3c2)c1C#N`, the values for the IC50 in assay [1] and in assay [2] were 1.9 µM and 8 µM, respectively. For the molecule `N#Cc1c(N)[nH]c(Sc2ccccc2N)c1C#N`, the IC50 in assay [1] is 13.5 µM; in assay [2], 26.2 µM.

For the molecule `N#Cc1c(C#N)c2sc3ccccc3n2c1Sc1ccccc1N`, in assay [4], the IC50 result was “Not Active”. In assay [3], `N#CC(=C(/N)Sc1ccc(-c2ccccc2)cc1)/C(C#N)=C(\N)Sc1ccc(-c2ccccc2)cc1` displayed an inhibition of 34%.

One may read the IC50 as the concentration needed to halve the response being measured. By inhibition is commonly meant the change of the read-out against control, counted positive when it falls. The low end stands for little suppression, the high end for strong suppression.
